Source: ChEMBL document CHEMBL1201861, “Genomics of Drug Sensitity in Cancer screening data, Wellcome Trust Sanger Institute”

What was measured:
[1] = system: CPC-N; experiment: cells; format: functional, cell-based; conditions: Homo sapiens;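 further: growth inhibition of CPC-N cells, with a cell viability assay as the readout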
Description: SANGER: Inhibition of human CPC-N cell growth in a cell viability assay.

[2] = system: DMS-153; experiment: cells; format: functional, cell-based; conditions: Homo sapiens
Description: SANGER: Inhibition of human DMS-153 cell growth in a cell viability assay.

[3] = system: Daudi; experiment: cells; format: functional, cell-based; conditions: Homo sapiens;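 further: growth inhibition of Daudi cells, read out by a viability assay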
Description: SANGER: Inhibition of human Daudi cell growth in a cell viability assay.

[4] = system: EB2; experiment: cells; format: functional, cell-based; conditions: Homo sapiens;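 further: growth inhibition of EB2 cells, read out with a cell viability assay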
Description: SANGER: Inhibition of human EB2 cell growth in a cell viability assay.

[5] = system: EHEB; experiment: cells; format: functional, cell-based; conditions: Homo sapiens;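 further: growth inhibition of human EHEB cells, read out with a cell viability assay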
Description: SANGER: Inhibition of human EHEB cell growth in a cell viability assay.

[6] = system: EVSA-T; experiment: cells; format: functional, cell-based, Homo sapiens; conditions: Homo sapiens, EVSA-T;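 further: growth inhibition of EVSA-T cells, read out with a cell viability assay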
Description: SANGER: Inhibition of human EVSA-T cell growth in a cell viability assay.

[7] = system: G-361; experiment: cells; format: functional, cell-based, Homo sapiens; conditions: Homo sapiens, G-361
[8] = system: HCC1599; experiment: cells; format: functional, cell-based; conditions: Homo sapiens;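 further: growth inhibition of HCC1599 cells, read out in a cell viability assay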
Description: SANGER: Inhibition of human HCC1599 cell growth in a cell viability assay.

[9] = system: HCT-15; experiment: cells; format: functional, cell-based, Homo sapiens; conditions: Homo sapiens, HCT-15;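 further: cell viability readout, IC50 reflecting suppression of HCT-15 cell growth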
Description: SANGER: Inhibition of human HCT-15 cell growth in a cell viability assay.

[10] = system: HT55; experiment: cells; format: functional, cell-based, Homo sapiens; conditions: Homo sapiens, HT55;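 further: cell viability readout measuring growth inhibition of human HT55 cells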
Description: SANGER: Inhibition of human HT55 cell growth in a cell viability assay.

[11] = system: IMR-5; experiment: cells; format: functional, cell-based; conditions: Homo sapiens;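 further: growth inhibition of human IMR-5 cells, read out with a cell viability assay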
Description: SANGER: Inhibition of human IMR-5 cell growth in a cell viability assay.

[12] = system: JIYOYE; experiment: cells; format: functional, cell-based; conditions: Homo sapiens
Description: SANGER: Inhibition of human JiyoyeP-2003 cell growth in a cell viability assay.

[13] = system: KARPAS-422; experiment: cells; format: functional, cell-based; conditions: Homo sapiens
Description: SANGER: Inhibition of human KARPAS-422 cell growth in a cell viability assay.

[14] = system: KMS-12-PE; experiment: cells; format: functional, cell-based; conditions: Homo sapiens;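 further: growth inhibition of human KMS-12-PE cells, measured with a cell viability assay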
Description: SANGER: Inhibition of human KMS-12-PE cell growth in a cell viability assay.

[15] = system: L-540; experiment: cells; format: functional, cell-based; conditions: Homo sapiens;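 further: growth inhibition of the human L-540 cell line, read out with a viability assay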
Description: SANGER: Inhibition of human L-540 cell growth in a cell viability assay.

[16] = system: LC-1F; experiment: cells; format: functional, cell-based; conditions: Homo sapiens;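 further: growth inhibition of human LC-1F cells, read out with a cell viability assay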
Description: SANGER: Inhibition of human LC-1F cell growth in a cell viability assay.

[17] = system: LP-1; experiment: cells; format: functional, cell-based; conditions: Homo sapiens;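 further: growth inhibition of human LP-1 cells, with the read-out taken from a cell viability assay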
Description: SANGER: Inhibition of human LP-1 cell growth in a cell viability assay.

[18] = system: MRK-nu-1; experiment: cells; format: functional, cell-based; conditions: Homo sapiens;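 further: cell viability assay measuring growth suppression of human MRK-nu-1 cells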
Description: SANGER: Inhibition of human MRK-nu-1 cell growth in a cell viability assay.

[19] = system: NB1; experiment: cells; format: functional, cell-based; conditions: Homo sapiens;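 further: reduction of NB1 cell proliferation, read out with a viability assay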
Description: SANGER: Inhibition of human NB1 cell growth in a cell viability assay.

[20] = system: NCCIT; experiment: SANGER: Inhibition of human NCCIT cell growth in a cell viability assay.; format: functional, cell-based
[21] = system: NCI-H1417; experiment: cells; format: functional, cell-based; conditions: Homo sapiens;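 further: human NCI-H1417 cells, growth inhibition determined with a cell viability readout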
Description: SANGER: Inhibition of human NCI-H1417 cell growth in a cell viability assay.

[22] = system: NCI-H1436; experiment: cells; format: functional, cell-based; conditions: Homo sapiens;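 further: growth suppression of human NCI-H1436 cells, determined with a cell viability readout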
Description: SANGER: Inhibition of human NCI-H1436 cell growth in a cell viability assay.

[23] = system: NCI-H1522; experiment: cells; format: functional, cell-based; conditions: Homo sapiens;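 further: growth inhibition of NCI-H1522 cells, read out with a cell viability assay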
Description: SANGER: Inhibition of human NCI-H1522 cell growth in a cell viability assay.

[24] = system: NCI-H1573; experiment: cells; format: functional, cell-based; conditions: Homo sapiens;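 further: growth inhibition of NCI-H1573 cells, read out with a cell viability assay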
Description: SANGER: Inhibition of human NCI-H1573 cell growth in a cell viability assay.

[25] = system: NCI-H1694; experiment: cells; format: functional, cell-based; conditions: Homo sapiens;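 further: cell viability assay measuring inhibition of growth in human NCI-H1694 cells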
Description: SANGER: Inhibition of human NCI-H1694 cell growth in a cell viability assay.

[26] = system: NCI-H1703; experiment: cells; format: functional, cell-based, Homo sapiens; conditions: Homo sapiens, NCI-H1703;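 further: growth inhibition of NCI-H1703 cells, read out via a cell viability assay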
Description: SANGER: Inhibition of human NCI-H1703 cell growth in a cell viability assay.

[27] = system: NCI-H1882; experiment: cells; format: functional, cell-based; conditions: Homo sapiens;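 further: growth inhibition of the cell line, determined with a viability assay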
Description: SANGER: Inhibition of human NCI-H1882 cell growth in a cell viability assay.

[28] = system: NCI-H2081; experiment: cells; format: functional, cell-based; conditions: Homo sapiens;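 further: growth inhibition of human NCI-H2081 cells, read out with a cell viability assay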
Description: SANGER: Inhibition of human NCI-H2081 cell growth in a cell viability assay.

[29] = system: NCI-H2196; experiment: cells; format: functional, cell-based; conditions: Homo sapiens;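 further: cell viability assay used as the readout of growth inhibition in NCI-H2196 cells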
Description: SANGER: Inhibition of human NCI-H2196 cell growth in a cell viability assay.

[30] = system: NCI-H522; experiment: cells; format: functional, cell-based, Homo sapiens; conditions: Homo sapiens, NCI-H522;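 further: cell viability assay measuring growth inhibition of human NCI-H522 cells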
Description: SANGER: Inhibition of human NCI-H522 cell growth in a cell viability assay.

[31] = system: NCI-H719; experiment: cells; format: functional, cell-based; conditions: Homo sapiens;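 further: growth inhibition of the cultured cell line, read out with a viability assay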
Description: SANGER: Inhibition of human NCI-H719 cell growth in a cell viability assay.

[32] = system: NCI-H748; experiment: cells; format: functional, cell-based; conditions: Homo sapiens;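 further: growth inhibition of NCI-H748 cells, measured by a cell viability assay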
Description: SANGER: Inhibition of human NCI-H748 cell growth in a cell viability assay.

[33] = system: PF-382; experiment: cells; format: functional, cell-based; conditions: Homo sapiens
Description: SANGER: Inhibition of human PF-382 cell growth in a cell viability assay.

[34] = system: RPMI-6666; experiment: cells; format: functional, cell-based; conditions: Homo sapiens
Description: SANGER: Inhibition of human RPMI-6666 cell growth in a cell viability assay.

[35] = system: RPMI 8402; experiment: SANGER: Inhibition of human RPMI-8402 cell growth in a cell viability assay.; format: functional, cell-based
[36] = system: SCLC-21H; experiment: cells; format: functional, cell-based; conditions: Homo sapiens;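 further: growth inhibition of cultured human SCLC-21H cells, read out with a cell viability assay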
Description: SANGER: Inhibition of human SCLC-21H cell growth in a cell viability assay.

[37] = system: SNU-423; experiment: cells; format: functional, cell-based, Homo sapiens; conditions: Homo sapiens, SNU-423
Description: SANGER: Inhibition of human SNU-423 cell growth in a cell viability assay.

[38] = system: SU-DHL-1; experiment: SANGER: Inhibition of human SU-DHL-1 cell growth in a cell viability assay.; format: functional, cell-based
[39] = system: SUP-T1; experiment: cells; format: functional, cell-based; conditions: Homo sapiens;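 further: growth inhibition of human SUP-T1 cells, read out as cell viability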
Description: SANGER: Inhibition of human SUP-T1 cell growth in a cell viability assay.

[40] = system: TALL-1; experiment: cells; format: functional, cell-based; conditions: Homo sapiens;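 further: growth inhibition of cultured human TALL-1 cells, read out by a cell viability assay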
Description: SANGER: Inhibition of human TALL-1 cell growth in a cell viability assay.

[41] = system: 23132-87; experiment: cells; format: functional, cell-based, Homo sapiens; conditions: Homo sapiens
Description: SANGER: Inhibition of human 23132-87 cell growth in a cell viability assay.

[42] = system: ARH-77; experiment: cells; format: functional, cell-based; conditions: Homo sapiens;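 further: growth inhibition of ARH-77 cells, read out by a cell viability assay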
Description: SANGER: Inhibition of human ARH-77 cell growth in a cell viability assay.

[43] = system: BL-41; experiment: cells; format: functional, cell-based; conditions: Homo sapiens;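 further: growth inhibition of human BL-41 cells, read out with a cell viability assay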
Description: SANGER: Inhibition of human BL-41 cell growth in a cell viability assay.

[44] = system: BL-70; experiment: SANGER: Inhibition of human BL-70 cell growth in a cell viability assay.; format: functional, cell-based
[45] = system: CA46; experiment: cells; format: functional, cell-based; conditions: Homo sapiens;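 further: growth inhibition of human CA46 cells, read out by a cell viability assay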
Description: SANGER: Inhibition of human CA46 cell growth in a cell viability assay.

[46] = system: TE-441-T; experiment: cells; format: functional, cell-based; conditions: Homo sapiens
Description: SANGER: Inhibition of human TE-441-T cell growth in a cell viability assay.

[47] = system: UACC-812; experiment: cells; format: functional, cell-based; conditions: Homo sapiens
Description: SANGER: Inhibition of human UACC-812 cell growth in a cell viability assay.

[48] = system: CMK; experiment: cells; format: functional, cell-based; conditions: Homo sapiens;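 further: growth inhibition of CMK cells, read out as cell viability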
Description: SANGER: Inhibition of human CMK cell growth in a cell viability assay.

C[C@]1(O)C[C@@H](c2nc(-c3ccc4ccc(-c5ccccc5)nc4c3)c3c(N)nccn32)C1 [LINSITINIB]
IC50 [1]: > 2560 nM | IC50 [2]: > 2560 nM | IC50 [3]: > 2560 nM | IC50 [4]: > 2560 nM | IC50 [5]: > 2560 nM | IC50 [6]: > 2560 nM | IC50 [7]: > 2560 nM | IC50 [8]: > 2560 nM | IC50 [9]: > 2560 nM | IC50 [10]: > 2560 nM | IC50 [11]: > 2560 nM | IC50 [12]: > 2560 nM | IC50 [13]: > 2560 nM | IC50 [14]: > 2560 nM | IC50 [15]: > 2560 nM | IC50 [16]: > 2560 nM | IC50 [17]: 2260 nM | IC50 [18]: > 2560 nM | IC50 [19]: > 2560 nM | IC50 [20]: > 2560 nM | IC50 [21]: > 2560 nM | IC50 [22]: > 2560 nM | IC50 [23]: > 2560 nM | IC50 [24]: > 2560 nM | IC50 [25]: > 2560 nM | IC50 [26]: > 2560 nM | IC50 [27]: > 2560 nM | IC50 [28]: > 2560 nM | IC50 [29]: > 2560 nM | IC50 [30]: > 2560 nM | IC50 [31]: > 2560 nM | IC50 [32]: > 2560 nM | IC50 [33]: > 2560 nM | IC50 [34]: > 2560 nM | IC50 [35]: > 2560 nM | IC50 [36]: > 2560 nM | IC50 [37]: > 2560 nM | IC50 [38]: > 2560 nM | IC50 [39]: > 2560 nM | IC50 [40]: > 2560 nM | IC50 [41]: > 2560 nM | IC50 [42]: > 2560 nM | IC50 [43]: > 2560 nM | IC50 [44]: > 2560 nM | IC50 [45]: > 2560 nM | IC50 [46]: > 2560 nM | IC50 [47]: > 2560 nM | IC50 [48]: 999 nM

C=CCc1cccc(/C=N/NC(=O)CN2CCN(Cc3ccccc3)CC2)c1O [PAC-1]
IC50 [1]: > 2560 nM | IC50 [2]: > 2560 nM | IC50 [3]: 947 nM | IC50 [4]: > 2560 nM | IC50 [5]: > 2560 nM | IC50 [6]: > 2560 nM | IC50 [7]: 1190 nM | IC50 [8]: > 2560 nM | IC50 [9]: 1580 nM | IC50 [10]: > 2560 nM | IC50 [11]: > 2560 nM | IC50 [12]: 1100 nM | IC50 [13]: > 2560 nM | IC50 [14]: > 2560 nM | IC50 [15]: 2200 nM | IC50 [16]: > 2560 nM | IC50 [17]: > 2560 nM | IC50 [18]: > 2560 nM | IC50 [19]: > 2560 nM | IC50 [20]: > 2560 nM | IC50 [21]: > 2560 nM | IC50 [22]: > 2560 nM | IC50 [23]: > 2560 nM | IC50 [24]: > 2560 nM | IC50 [25]: > 2560 nM | IC50 [26]: > 2560 nM | IC50 [27]: > 2560 nM | IC50 [28]: > 2560 nM | IC50 [29]: > 2560 nM | IC50 [30]: > 2560 nM | IC50 [31]: > 2560 nM | IC50 [32]: > 2560 nM | IC50 [33]: 1060 nM | IC50 [34]: 1040 nM | IC50 [35]: 1770 nM | IC50 [36]: > 2560 nM | IC50 [37]: > 2560 nM | IC50 [38]: > 2560 nM | IC50 [39]: 1000 nM | IC50 [40]: > 2560 nM | IC50 [41]: > 2560 nM | IC50 [42]: > 2560 nM | IC50 [43]: 1450 nM | IC50 [44]: 1970 nM | IC50 [45]: 2020 nM | IC50 [46]: > 2560 nM | IC50 [47]: > 2560 nM | IC50 [48]: 2130 nM

Cc1ccc(Nc2nccc(N(C)c3ccc4c(C)n(C)nc4c3)n2)cc1S(N)(=O)=O [PAZOPANIB]
IC50 [1]: > 8000 nM | IC50 [2]: > 8000 nM | IC50 [3]: 3660 nM | IC50 [4]: 3280 nM | IC50 [5]: > 8000 nM | IC50 [6]: > 8000 nM | IC50 [7]: 3040 nM | IC50 [8]: > 8000 nM | IC50 [9]: > 8000 nM | IC50 [10]: 988 nM | IC50 [11]: > 8000 nM | IC50 [12]: > 8000 nM | IC50 [13]: > 8000 nM | IC50 [14]: > 8000 nM | IC50 [15]: > 8000 nM | IC50 [16]: > 8000 nM | IC50 [17]: > 8000 nM | IC50 [18]: > 8000 nM | IC50 [19]: > 8000 nM | IC50 [20]: > 8000 nM | IC50 [21]: > 8000 nM | IC50 [22]: > 8000 nM | IC50 [23]: > 8000 nM | IC50 [24]: 5970 nM | IC50 [25]: > 8000 nM | IC50 [26]: > 8000 nM | IC50 [27]: > 8000 nM | IC50 [28]: > 8000 nM | IC50 [29]: > 8000 nM | IC50 [30]: > 8000 nM | IC50 [31]: > 8000 nM | IC50 [32]: > 8000 nM | IC50 [33]: > 8000 nM | IC50 [34]: > 8000 nM | IC50 [35]: > 8000 nM | IC50 [36]: > 8000 nM | IC50 [37]: > 8000 nM | IC50 [38]: > 8000 nM | IC50 [39]: > 8000 nM | IC50 [40]: > 8000 nM | IC50 [41]: > 8000 nM | IC50 [42]: > 8000 nM | IC50 [43]: > 8000 nM | IC50 [44]: > 8000 nM | IC50 [45]: > 8000 nM | IC50 [46]: > 8000 nM | IC50 [47]: > 8000 nM | IC50 [48]: > 8000 nM
